Consider 1 molecule from US11970461B1, “1-hexyl-5-(4-methoxyphenyl)-2,4-diphenyl-1H-imidazole as an antimicrobial compound” (KING FAISAL UNIVERSITY, priority 2023, dated 2024).

Each structure is given as a SMILES string.

One data set deals with Staphylococcus aureus. Kind of data set: antimicrobial testing by agar dilution, Staphylococcus aureus. It counts as cell-based. The settings on record: after 10, 20, 40 and 60 minutes at all dilutions 1:100, 1:200, 1:400, 1:800. The procedure: (§1) The antimicrobial properties of the 1-hexyl-5-(4-methoxyphenyl)-2,4-diphenyl-1H-imidazole was studied by the method of agar dilution. Test solutions of each compound was prepared in concentration of 1% using dimethylformamide as a solvent then they are diluted in physiological solution to obtain the final experimental dilutions 1:100, 1:200, 1:400, 1:800. The effect of these substances are compared with furacillin in a controllable study. The testing microbes used were gram positive bacteria Staphylococcus aureus, gram negative bacteria Escherichia coli, Pseudomonas aeruginosa and Candida albicans fungi were taken. The experiments used for this survey were meat-pentonlu agar (EPA) for cultivation of bacteria and Saburo environment for fungi. Each experiment used 1 ml of test solution on each plate 500 min. Add 2 drops of emulsified with microbes feel. All experimental samples were taken from the agar after 10, 20, 40, 60 minutes in the environment on the basis of Patrk planted. Bacteria were cultivated at a temperature of 37° C. for 1 day and the mushroom was kept in a thermostat for […] at a temperature of 28° C. Then the results were checked.

Another data set concerns Escherichia coli. Nature of the data set: antimicrobial testing by agar dilution, Escherichia coli. The settings on record: after 10, 20, 40 and 60 minutes at all dilutions 1:100, 1:200, 1:400, 1:800. It is filed as cell-based. The procedure:
as §1

In the next data set the test system is Pseudomonas aeruginosa. Kind of data set: antimicrobial testing by agar dilution, Pseudomonas aeruginosa. To be noted: after 10, 20, 40 and 60 minutes at all dilutions 1:100, 1:200, 1:400, 1:800. It is filed as cell-based. The procedure:
as §1

Another data set deals with Candida albicans. Nature of the data set: antimicrobial testing by agar dilution, Candida albicans. It is filed as cell-based. To be noted: after 10, 20, 40 and 60 minutes at all dilutions 1:100, 1:200, 1:400, 1:800. The procedure: as §1

The molecule `CCCCCCn1c(-c2ccccc2)nc(-c2ccccc2)c1-c1ccc(OC)cc1` [1-hexyl-5-(4-methoxyphenyl)-2,4-diphenyl-1H-imidazole] showed a melting point of 161 to 162 °C. Further, the “inhibition activity, Staphylococcus aureus” value with Staphylococcus aureus is recorded as “higher inhibition activity”. Further, the “inhibition activity, Escherichia coli” value in the data set on Escherichia coli is “higher inhibition activity”. Moreover, the “inhibition activity, Pseudomonas aeruginosa” value in the data set on Pseudomonas aeruginosa is recorded as “higher inhibition activity”. In addition, in the data set on Candida albicans, the “inhibition activity, Candida albicans” value is “higher inhibition activity”.
